The subject of experiment [1] is orthotopic 4T1 breast tumor. In words: in vivo T1-weighted MR imaging of orthotopic 4T1 breast tumor in BALB/c mice. The conditions noted are these: BALB/c mice bearing orthotopic 4T1 breast tumor; 0.03 mmol-Gd/kg; T1 weighted axial 2D gradient images; versus non-targeted scrambled CLT1-(DOTA-Gd)4. The protocol:
A […] breast tumor model was also run. A 4T1 cell line was cultured using ATCC complete growth medium. Female Balb/c mice (4-6 weeks old) were purchased from Jackson Lab. The suspension of 4T1 cells in PBS was mixed with Matrigel matrix at 1:1 ratio. The mixture (2×10^6 cells, 100 μL) was surgically implanted in the mammary pad of a mouse when a mouse was approximately 8-10 weeks old.
FIG. 2 illustrates T1-weighted axial 2D gradient images of […] breast cancer tumor. Both CLT1-(DOTA-Gd)4 and non-targeted scrambled CLT1-(DOTA-Gd)4 were investigated in […] BALB/c mice bearing orthotopic 4T1 […] breast tumor. […] The images in row (A) of the targeted CLT1-(DOTA-Gd)4. Images in row (A) illustrate a time sequence of the targeted CLT1-(DOTA-Gd)4. Images in row (B) illustrate the time sequence for non-targeted CLT1-(DOTA-Gd)4.

The test system of experiment [2] is orthotopic human prostate tumor. Briefly: in vivo MR imaging of orthotopic human prostate tumor in nu/nu nude athymic mice. The following applies: nu/nu nude athymic mice bearing orthotopic human prostate tumor; 0.03 mmol-Gd/kg; versus non-targeted scrambled CLT1-(DOTA-Gd)4. The method, then:
In animal tumor models […] athymic nu/nu mice (4-6 weeks old), were purchased from the Animal Resource Center (ARC) of Case Western Reserve Universitey. A suspension of PC3 with GFP cells (PC3-GFP) were harvested and suspended in a sterile phosphate-buffered saline solution. The mixture (5×10^5 cells, 25 μL) was surgically inoculated into the ventral prostate through the dorsal prostate.
FIG. 3 illustrates an enhancement ratio and a signal to noise ratio of the targeted CLT1-(DOTA-Gd)4 and non-targeted scrambled CLT1-(DOTA-Gd)4. The MRI contrast agents, targeted CLT1-(DOTA-Gd)4 and non-targeted scrambled CLT1-(DOTA-Gd)4 were administer at 0.03 mmol-Gd/kg in nu/nu nude athymic mice (n=4) bearing orthotopic human prostate tumor.

Experiment [3] relates to atherosclerotic ApoE-deficient mice. Briefly: in vivo MR imaging in atherosclerotic ApoE-deficient mice. The following applies: images at baseline and in fifteen minute intervals up to sixty minutes after injection, versus scrambled peptides and Magnevist. The text has this:
An atherosclerotic mice model was run with 12 week old Apoe knockout mice (B6.129P2 Apotem1UNC/J) and control mice (C57BL/J6) were purchased from Jackson Lab. Apoe knockout mice were fed with a high fat diet (60% fat) after arriving and were maintained for 6 months. Control mice were fed with a normal diet (6% fat).
FIG. 1 illustrates in vivo MR images acquired in atherosclerotic ApoE-deficient mice before and after injection of targeted CLTI-(DOTA-Gd)4 or CREKA-(DOTA-Gd)4 and non-targeted controls. Arrows point to atherosclerotic aorta and insets are enlargements of aorta. The images show a baseline image at zero minutes before an injection of contrast agent. The images progress to injection and in fifteen minute intervals up to sixty minutes. The images illustrate targeted peptides, scrambled peptides, and Magnevist.

Results on one substance are retold here after US9011816B2, “Fibronectin targeting contrast agent” (Case Western Reserve University, priority 2011, dated 2015).

Take “CLT1-PEG-(Lys)3-(DOTA-Gd)4 [CLT1-(DOTA-Gd)4]”: in experiment [1], the “MR contrast enhancement in tumor tissue (FIG. 2)” value was “greater and longer enhancement in tumor tissue compared to non-targeted scrambled CLT1-(DOTA-Gd)4”. For the same substance, the “signal intensity within the tumor tissue (enhancement ratio, signal to noise ratio; FIG. 3)” value in experiment [2] is “greater enhancement than non-target agents”. Moreover, the “MR contrast enhancement (FIG. 1)” value in experiment [3] was “greater and longer enhancement in tumor tissue compared to non-targeted scrambled peptides and controls”.
